Assay [1] has as its system SW1 tumors. Briefly: Volumetric tumor growth, SW1 melanoma in C3H/HeN mice (incl. immunodepletion, FTY720, anti-PD1). The following applies: SW1 model. It counts as in vivo, mouse. An excerpt:
All animals were housed at the Vincent A. Stabile Research building animal facility at H. Lee Moffitt Cancer Center & Research Institute, which is fully accredited by the Association for Assessment and Accreditation of Laboratory Animal Care International (AAALAC, #434), and are managed in accordance with the Guide for the Care and Use of Laboratory Animals (“The Guide”), the Animal Welfare Regulations Title 9 Code of Federal Regulations Subchapter A, “Animal Welfare”, Parts 1-3 (AWR), the Public Health Service Policy on Humane Care and Use of Laboratory Animals (PHS Policy), and by the USF Institutional Animal Care and Use Committee's Principles and Procedures of Animal Care and Use (IACUC Principles). The experiments and protocols detailed in this study received institutional approval by the Moffitt IACUC (RIS00001625). Four-to-six-week-old female C3H/HeN and male C57BL6 mice were purchased from Charles Rivers Laboratories for the indicated experiments. Four-to-six-week-old male NSG mice from the Lau laboratory breeding colony were used for the indicated experiments. Power calculations were used to determine mouse cohort sizes to detect significant changes in tumor sizes. In general, 10 mice per indicated cohort to accommodate for incidental loss of mice due to issues beyond our control (e.g., incidental tumor ulceration that required exclusion from the study). Mouse tumor volumes were measured using length, width and depth divided by 2. At each experimental endpoint, mice were humanely euthanized using CO2 inhalation in accordance to the American Veterinary Medical Association guidelines.
For all mouse models, 1×10^6 melanoma cells were injected subcutaneously in the right hind flanks of each mouse. […] This dosage is within ranges for dietary supplementation with L-fucose and other similar dietary sugars (e.g., D-mannose) in other rodent studies. When the tumors reached −2 cm^3, the animals were sacrificed, and the tumors either processed for flow cytometric profiling or for histological analysis as indicated.
Control vs. mFuk±L-fucose models (FIG. 1 & FIG. 8): SW1 or SM1 mouse melanoma cells were injected into syngeneic C3H/HeN (or NSG) female or C57BL/6 male mice, respectively, as follows: parental SW1 cells for FIG. 1A; parental SM1 cells for FIG. 1E; SW1 cells stably expressing either empty vector (EV) or mouse fucose kinase (mFuk) for FIG. 1L; and parental SW1 cells for FIG. 1M.
Control vs. L-fucose±FTY720 models (FIG. 2): SW1 or SM1 mouse melanoma cells were injected into syngeneic C3H/HeN (or NSG) female or C57BL/6 male mice, respectively. Cells were injected as follows: parental SW1 cells for FIG. 1A; parental SM1 cells for FIG. 1E; SW1 cells stably expressing either empty vector (EV) or mouse fucose kinase (mFuk) for FIG. 1L; and parental SW1 cells for FIG. 1M. FTY720 was administered at 20 μg every 2 days starting on Day 12, just prior to the initiation of LF, until endpoint.
Immunodepletion mouse models (FIG. 1 & FIG. 8): Three days prior to tumor engraftment, PBS (control) or ˜300 μg α-CD4 (20 mg/kg, for immunodepletion, GK1.5, Bioxcell (West Lebanon, NH)) or 0-CD8 (20 mg/kg, for immunodepletion, 2.43, Bioxcell (West Lebanon, NH)) was administered by intraperitoneal injection into the indicated cohorts of mice. Injections of immunodepletion antibody or PBS were continued every 3-4 days until endpoint. Syngeneic recipient C3H/HeN female or C57BL/6 male mice were injected with SW1 or SM1 cells, respectively. […]

Another assay deals with breast tumors. Briefly: Syngeneic breast tumor model, tumor growth and flow cytometry of immune cells. In kind it is in vivo. An excerpt: We observed that L-fucose reduces tumor growth in breast cancer and enriches for CD11c+ cells.
(In general: A flow cytometer gives signals particle by particle.)

Assay [2] deals with SW1 tumors. Briefly: SW1 tumor growth in NSG (immunodeficient) mice. In kind it is in vivo, mouse. An excerpt: All animals were housed at the Vincent A. Stabile Research building animal facility at H. Lee Moffitt Cancer Center & Research Institute, which is fully accredited by the Association for Assessment and Accreditation of Laboratory Animal Care International (AAALAC, #434), and are managed in accordance with the Guide for the Care and Use of Laboratory Animals (“The Guide”), the Animal Welfare Regulations Title 9 Code of Federal Regulations Subchapter A, “Animal Welfare”, Parts 1-3 (AWR), the Public Health Service Policy on Humane Care and Use of Laboratory Animals (PHS Policy), and by the USF Institutional Animal Care and Use Committee's Principles and Procedures of Animal Care and Use (IACUC Principles). The experiments and protocols detailed in this study received institutional approval by the Moffitt IACUC (RIS00001625). Four-to-six-week-old female C3H/HeN and male C57BL6 mice were purchased from Charles Rivers Laboratories for the indicated experiments. Four-to-six-week-old male NSG mice from the Lau laboratory breeding colony were used for the indicated experiments. Power calculations were used to determine mouse cohort sizes to detect significant changes in tumor sizes. […] Mouse tumor volumes were measured using length, width and depth divided by 2. […]

The test system of assay [3] is SW1 tumors. Briefly: Immunofluorescent (AAL) analysis of mouse tumor tissue fucosylation. It counts as in vivo. The following applies: oral L-fuc; SW1 model. On the procedure: In general, paraffin-embedded FFPE tumor tissue sections (or the TMA slide) were melted at 70° C. for 30 min. The slides were further de-paraffinizeded using xylene and rehydrated in serial alcohol washes. The slides were pressure cooked at 15 PSI for 15 min in a 1×DAKO antigen retrieval buffer (Agilent Technologies (Santa Clara, CA)). The tumor sections were subject to two 5-min standing washes in PBS prior to blocking in 1× Carb-Free Blocking Solution (Vector Labs (Burlingame, CA)) for 2-3h. The slides were next washed twice and incubated with indicated lectin and/or antibodies.
For assessment of mouse tumor fucosylation, FFPE tumor sections were immunostained with FITC-conjugated AAL lectin (0.4 μg/mL, Vector Laboratories (Burlingame, CA)) and rabbit anti-Mart1+rabbit anti-S100 (melanoma marker cocktail). The slides were mounted with Vectashield+DAPI (Vector Laboratories (Burlingame, CA)). Four representative microscopy images per tumor were acquired using a Keyence BZ-X710, and images were process and analyzed using FUI (NIH) as follows: melanoma marker-positive regions were assigned as regions of interest (ROI) in which we measured Integrated density of AAL signal. Integrated densities of control tumors were assigned as 1, and Integrated AAL density values of experimental tumors were divided by control to produce relative fold changes and plotted as column charts.

Another assay concerns HLA-DRB1. The assay can be described thus: Flow cytometric assessment of cell surface fucosylation and HLA-DRB1 in melanoma cells. It counts as cell-based, human. Conditions: 250 μM, 72 h; flow cytometry. On the procedure:
Indicated cells were treated for 72 h with DMSO, 250 μM fucosyltransferase inhibitor (FUTi) (Millipore Sigma (St. Louis, MO)), or 250 μM of L-fucose (Biosynth (Oak Terrace, IL)). After 72 h, cells were stained with 0.1 μM PKH26 (Millipore Sigma (St. Louis, MO)) prior to fixation in 4% formaldehyde solution. The cells were stained with anti-HLA-DRB1 and fluorescein AAL, or anti-human or anti-mouse PD-L1 overnight. The following day the cells were washed 3 times prior to adding AlexaFluor 594 donkey anti-rabbit. Cells were washed 3 times and then subject to flow cytometric analyses using a FACSCalibur (BD Biosciences (San Jose, CA)). Samples were analyzed using FlowJo analysis software (BD Biosciences (San Jose, CA)). Median values of DRB1 and AAL were normalized to PKH26 values and statistical analysis was performed using GraphPad Prism.

Some results are limits rather than exact numbers.

For the compound `C[C@H](O)[C@@H](O)[C@@H](O)[C@H](O)C=O` [L-fucose], the “reduction of tumor growth” value in the assay on SW1 tumors [1] (CD4+T cell depletion) is “completely abrogated”. The “efficacy of anti-PD1 when combined with oral L-fuc” value with SW1 tumors [1] (L-fuc in combination with anti-PD1) is on record as “did not enhance efficacy of anti-PD1”. Moreover, the reduced tumor growth with SW1 tumors [1] (control and CD8+ T cell-depleted mice) is over 50%. Also, in the assay on SW1 tumors [1] (oral L-fuc), the reduced tumor growth was about 50%. In addition, the “CD11c+ cells in breast tumors” value in the assay on breast tumors (flow cytometry) is on record as “enrichment of CD11c+ cells”. For the same compound, in the assay with breast tumors (syngeneic breast tumor model), the breast tumor growth result is reported as “dose-dependent tumor suppression”. Besides, the “SW1 tumor growth in immunodeficient mice” value in the assay on SW1 tumors [2] is “did not reduce”. The compound also came in with an increased tumor fucosylation in the assay with SW1 tumors [3] of about 2 fold. In the assay with HLA-DRB1, the “cell surface HLA-DRB1” value is “increased” and the cell surface fucosylation result was “increased”.

The values are drawn from patent US20260108547A1, “LEVERAGING L-FUCOSE-MEDIATED SIGNALING TO INDUCE MONOCYTE-DERIVED DENDRITIC CELL POLARIZATION” (H. LEE MOFFITT CANCER CENTER AND RESEARCH INSTITUTE, INC., priority 2022, published 2026).
